According to ChEMBL document CHEMBL3885881, “DrugMatrix”:

Organism: Rattus norvegicus
Experiment: DrugMatrix - Regimen: Daily Repeat
Type: toxicity, organism-based, Sprague-Dawley
Design: regimen Daily Repeat, gender Male, age 6-8 weeks
Details: in vivo, po, route oral GAVAGE, vehicle .5 % CMC; for ALANINE AMINOTRANSFERASE / ALBUMIN / ALKALINE PHOSPHATASE / ASPARTATE AMINOTRANSFERASE / BLOOD UREA NITROGEN / CARBON DIOXIDE / CHLORIDE / CHOLESTEROL / CREATINE PHOSPHOKINASE / CREATININE / GLUCOSE / LACTATE DEHYDROGENASE / LIPASE / PHOSPHORUS / POTASSIUM / SODIUM / TOTAL BILIRUBIN / TOTAL PROTEIN / URIC ACID: tissue Plasma; for ABSOLUTE BASOPHIL / ABSOLUTE EOSINOPHIL / ABSOLUTE LYMPHOCYTE / ABSOLUTE MONOCYTE / ABSOLUTE SEGMENTED NEUTROPHIL / BASOPHIL / EOSINOPHIL / ERYTHROCYTE COUNT / HEMATOCRIT / HEMOGLOBIN / LEUKOCYTE COUNT / LYMPHOCYTE / MEAN CORPUSCULAR HEMOGLOBIN / MEAN CORPUSCULAR HEMOGLOBIN CONCENTRATION / MEAN CORPUSCULAR VOLUME / MONOCYTE / NEUTROPHIL / NUCLEATED RED BLOOD CELLS / PLATELET COUNT: tissue Blood
[1] = 88 mg/kg, 72 h, dose level Low, time 3 day
[2] = 88 mg/kg, 120 h, dose level Low, time 5 day
[3] = 2000 mg/kg, 72 h, dose level High, time 3 day

CC(C)[C@H](N)C(=O)OCCOCn1cnc2c(=O)[nH]c(N)nc21 [VALACYCLOVIR] was tested. Which “ALANINE AMINOTRANSFERASE” value [1] did it give?
Its value is 55 u/L.

And the ALBUMIN [1]?
The ALBUMIN was 4.33 G/DL.

And the “ALKALINE PHOSPHATASE” value [1]?
The value was 415.33 u/L.

What about the “ASPARTATE AMINOTRANSFERASE” value [1] of the same compound?
The value was 100.67 u/L.

What about the “BLOOD UREA NITROGEN” value [1] of the same compound?
The value was 14.67 mg/dL.

And the “CARBON DIOXIDE” value [1]?
The value was 27 mmol/L.

And the CHLORIDE [1]?
The CHLORIDE was 101 MEQ/L.

What about the CHOLESTEROL [1] of the same compound?
The CHOLESTEROL was 77 mg/dL.

And the “CREATINE PHOSPHOKINASE” value [1]?
The value was 717.67 u/L.

And the CREATININE [1]?
The CREATININE was 0.2 mg/dL.

What about the GLUCOSE [1] of the same compound?
Its GLUCOSE is 147.33 mg/dL.

What about the “LACTATE DEHYDROGENASE” value [1] of the same compound?
Its value is 667.67 u/L.

What about the LIPASE [1] of the same compound?
Its LIPASE is 10.67 u/L.

And the PHOSPHORUS [1]?
The PHOSPHORUS was 12.5 mg/dL.

And the POTASSIUM [1]?
Its POTASSIUM is 6.48 MEQ/L.

And the SODIUM [1]?
The SODIUM was 144.3 MEQ/L.

What about the “TOTAL BILIRUBIN” value [1] of the same compound?
Its value is 0.2 mg/dL.

What about the “TOTAL PROTEIN” value [1] of the same compound?
Its value is 6.23 G/DL.

And the “URIC ACID” value [1]?
Its value is 1.4 mg/dL.

What about the “ABSOLUTE BASOPHIL” value [2] of the same compound?
The value was 0 CELLS/uL.

What about the “ABSOLUTE EOSINOPHIL” value [2] of the same compound?
The value was 94 CELLS/uL.

What about the “ABSOLUTE LYMPHOCYTE” value [2] of the same compound?
The value was 9072.33 CELLS/uL.

And the “ABSOLUTE MONOCYTE” value [2]?
Its value is 117.33 CELLS/uL.

What about the “ABSOLUTE SEGMENTED NEUTROPHIL” value [2] of the same compound?
The value was 1283 CELLS/uL.

And the BASOPHIL [2]?
Its BASOPHIL is 0%.

What about the EOSINOPHIL [2] of the same compound?
The EOSINOPHIL was 0.67%.

And the “ERYTHROCYTE COUNT” value [2]?
Its value is 5.42 x10E6/uL.

What about the HEMATOCRIT [2] of the same compound?
The HEMATOCRIT was 33.93%.

What about the HEMOGLOBIN [2] of the same compound?
Its HEMOGLOBIN is 13.17 G/DL.

And the “LEUKOCYTE COUNT” value [2]?
Its value is 10.57 x10E3/uL.

And the LYMPHOCYTE [2]?
The LYMPHOCYTE was 86.33%.

What about the “MEAN CORPUSCULAR HEMOGLOBIN” value [2] of the same compound?
Its value is 24.3 pg.

What about the “MEAN CORPUSCULAR HEMOGLOBIN CONCENTRATION” value [2] of the same compound?
The value was 38.83 G/DL.

And the “MEAN CORPUSCULAR VOLUME” value [2]?
The value was 62.57 fL.

What about the MONOCYTE [2] of the same compound?
The MONOCYTE was 1.33%.

What about the NEUTROPHIL [2] of the same compound?
Its NEUTROPHIL is 11.67%.

What about the “NUCLEATED RED BLOOD CELLS” value [2] of the same compound?
Its value is 0 /100WBC.

And the “PLATELET COUNT” value [2]?
Its value is 1317.67 x10E3/uL.

And the “ALANINE AMINOTRANSFERASE” value [2]?
Its value is 58.33 u/L.

What about the ALBUMIN [2] of the same compound?
The ALBUMIN was 4.43 G/DL.

What about the “ALKALINE PHOSPHATASE” value [2] of the same compound?
Its value is 393 u/L.

And the “ASPARTATE AMINOTRANSFERASE” value [2]?
Its value is 91 u/L.

And the “BLOOD UREA NITROGEN” value [2]?
The value was 18 mg/dL.

What about the “CARBON DIOXIDE” value [2] of the same compound?
The value was 28.33 mmol/L.

And the CHLORIDE [2]?
Its CHLORIDE is 103.33 MEQ/L.

And the CHOLESTEROL [2]?
The CHOLESTEROL was 75.33 mg/dL.

What about the “CREATINE PHOSPHOKINASE” value [2] of the same compound?
Its value is 215.67 u/L.

What about the CREATININE [2] of the same compound?
The CREATININE was 0.21 mg/dL.

And the GLUCOSE [2]?
Its GLUCOSE is 137.33 mg/dL.

What about the “LACTATE DEHYDROGENASE” value [2] of the same compound?
The value was 175.67 u/L.

And the LIPASE [2]?
Its LIPASE is 9.33 u/L.

What about the PHOSPHORUS [2] of the same compound?
Its PHOSPHORUS is 13.03 mg/dL.

What about the POTASSIUM [2] of the same compound?
Its POTASSIUM is 7.1 MEQ/L.

What about the SODIUM [2] of the same compound?
Its SODIUM is 147.83 MEQ/L.

And the “TOTAL BILIRUBIN” value [2]?
Its value is 0.23 mg/dL.

What about the “TOTAL PROTEIN” value [2] of the same compound?
The value was 6.33 G/DL.

What about the “URIC ACID” value [2] of the same compound?
The value was 1.57 mg/dL.

And the “ABSOLUTE BASOPHIL” value [3]?
The value was 0 CELLS/uL.

What about the “ABSOLUTE EOSINOPHIL” value [3] of the same compound?
The value was 83 CELLS/uL.

What about the “ABSOLUTE LYMPHOCYTE” value [3] of the same compound?
The value was 8794.67 CELLS/uL.

And the “ABSOLUTE MONOCYTE” value [3]?
Its value is 95 CELLS/uL.

What about the “ABSOLUTE SEGMENTED NEUTROPHIL” value [3] of the same compound?
The value was 994 CELLS/uL.

And the BASOPHIL [3]?
The BASOPHIL was 0%.

What about the EOSINOPHIL [3] of the same compound?
The EOSINOPHIL was 1%.

And the “ERYTHROCYTE COUNT” value [3]?
The value was 4.99 x10E6/uL.

What about the HEMATOCRIT [3] of the same compound?
Its HEMATOCRIT is 31.53%.

And the HEMOGLOBIN [3]?
The HEMOGLOBIN was 12.63 G/DL.

What about the “LEUKOCYTE COUNT” value [3] of the same compound?
Its value is 9.97 x10E3/uL.

What about the LYMPHOCYTE [3] of the same compound?
The LYMPHOCYTE was 88%.

And the “MEAN CORPUSCULAR HEMOGLOBIN” value [3]?
The value was 25.3 pg.

What about the “MEAN CORPUSCULAR HEMOGLOBIN CONCENTRATION” value [3] of the same compound?
The value was 40.1 G/DL.

And the “MEAN CORPUSCULAR VOLUME” value [3]?
Its value is 63.07 fL.

What about the MONOCYTE [3] of the same compound?
The MONOCYTE was 1%.

What about the NEUTROPHIL [3] of the same compound?
Its NEUTROPHIL is 10%.

What about the “NUCLEATED RED BLOOD CELLS” value [3] of the same compound?
The value was 0 /100WBC.

What about the “PLATELET COUNT” value [3] of the same compound?
The value was 1175 x10E3/uL.

And the “ALANINE AMINOTRANSFERASE” value [3]?
The value was 43.33 u/L.

And the ALBUMIN [3]?
The ALBUMIN was 4 G/DL.

And the “ALKALINE PHOSPHATASE” value [3]?
The value was 329.67 u/L.

What about the “ASPARTATE AMINOTRANSFERASE” value [3] of the same compound?
Its value is 81.67 u/L.

And the “BLOOD UREA NITROGEN” value [3]?
The value was 79.33 mg/dL.

And the “CARBON DIOXIDE” value [3]?
The value was 22.67 mmol/L.

What about the CHLORIDE [3] of the same compound?
Its CHLORIDE is 101 MEQ/L.

And the CHOLESTEROL [3]?
The CHOLESTEROL was 118.67 mg/dL.

What about the “CREATINE PHOSPHOKINASE” value [3] of the same compound?
The value was 274.33 u/L.

What about the CREATININE [3] of the same compound?
Its CREATININE is 1.22 mg/dL.

And the GLUCOSE [3]?
The GLUCOSE was 158.33 mg/dL.

And the “LACTATE DEHYDROGENASE” value [3]?
The value was 182 u/L.

And the LIPASE [3]?
Its LIPASE is 10.67 u/L.

And the PHOSPHORUS [3]?
The PHOSPHORUS was 10.07 mg/dL.

What about the POTASSIUM [3] of the same compound?
The POTASSIUM was 5.9 MEQ/L.

What about the SODIUM [3] of the same compound?
The SODIUM was 143.87 MEQ/L.

What about the “TOTAL BILIRUBIN” value [3] of the same compound?
Its value is 0.23 mg/dL.

And the “TOTAL PROTEIN” value [3]?
Its value is 6.3 G/DL.

And the “URIC ACID” value [3]?
The value was 1.2 mg/dL.
